The data set is described as follows: recombinant UMI read abundance after kanamycin selection (control-corrected) (log10(CPM+1)); higher = more efficient recombination; extreme values may be limits of the assay; sequences stand for … in AGTGCAGAGAAAATCGGCCAGTTTTCTCTGCCTGCAGTCCGCATGCCGTGGGACCCCTTGGGTTCTAACCTGTTGCCTAGATTTATGCAGCGGACTGCCTTTCTCCCAAAGTGATAAACCGG…AGGTTGGTTTCACT; site = the 11-nt donor. The procedure, abridged: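 In a pooled Escherichia coli screen for the IS621 bridge recombinase, donor and donor-binding-loop pairs were each placed with a 12-nt UMI on a plasmid bearing a promoterless kanamycin gene. This library was co-electroporated with a target plasmid encoding a fixed target and T7-inducible recombinase, and cells were plated either on IPTG (0.07 mM) plus kanamycin or without selection, in two replicates each. Recombinant UMIs were PCR-amplified across the donor–target junction and sequenced, and counts were converted to CPM, averaged over replicates, scaled by control-derived factors and reported as log10(CPM+1).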
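Note: IS621 bridge recombinase in Escherichia coli cells against a fixed T5 target plasmid.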

Turning to “AGAAAGGCATGGACCGGTTTTCCCGGTAATCCGTATTTGCT (site AGCAAGGCTAG)”, the “recombinant UMI read abundance (log10)” value was found to be 0.

“AGAAAGGCATGGACCGGTTTTCCCGGTAATCCGTATTTGCT (site AGGAAGGCTAG)”: the “recombinant UMI read abundance (log10)” value is 1.73.

Turning to “AGAAAGGCATGGACCGGTTTTCCCGGTAATCCGTATTTGCT (site AGTAAGGCTAG)”, the “recombinant UMI read abundance (log10)” value worked out at 1.3.

With “AGAAAGGCATGGACCGGTTTTCCCGGTAATCCGTATTTGCT (site ATAAAGGCTAG)”, the “recombinant UMI read abundance (log10)” value was 0.

For the sequence “AGAAAGGCATGGACCGGTTTTCCCGGTAATCCGTATTTGCT (site CGAAAGGCTAG)”, the “recombinant UMI read abundance (log10)” value was determined as 0.48.

“AGAAAGGCATGGACCGGTTTTCCCGGTAATCCGTATTTGCT (site GGAAAGGCTAG)”: the “recombinant UMI read abundance (log10)” value was 0.0101.

As for “AGAAAGGCATGGACCGGTTTTCCCGGTAATCCGTATTTGCT (site TGAAAGGCTAG)”, the “recombinant UMI read abundance (log10)” value was 0.932.

As to “AGAAAGTCATGGACCGGTTTTCCCGGTAATCCGTATTTGCT (site AGAAAGACTAG)”, the “recombinant UMI read abundance (log10)” value was 0.

For “AGAAAGTCATGGACCGGTTTTCCCGGTAATCCGTATTTGCT (site AGAAAGCCTAG)”, the “recombinant UMI read abundance (log10)” value stood at 0.

Consider “AGAAAGTCATGGACCGGTTTTCCCGGTAATCCGTATTTGCT (site AGAAAGGCTAG)”, for which the “recombinant UMI read abundance (log10)” value was 0.

On to “AGAAAGTCATGGACCGGTTTTCCCGGTAATCCGTATTTGCT (site AGAAAGTCTAG)”, for which the “recombinant UMI read abundance (log10)” value came to 2.63.

As for “AGAACAACATGGACCGGTTTTCCCGGTAATCCGTATTTGTG (site AGAACAACTCA)”, the “recombinant UMI read abundance (log10)” value was 1.29.

On to “AGAATCACATGGACCGGTTTTCCCGGTAATCCGTATTTGAA (site AGAATCACTTT)”, for which the “recombinant UMI read abundance (log10)” value was determined as 2.16.

Regarding “AGACGAACATGGACCGGTTTTCCCGGTAATCCGTATTTGGA (site AGACGAACTTC)”, the “recombinant UMI read abundance (log10)” value was determined as 1.82.

Regarding “AGACGCACATGGACCGGTTTTCCCGGTAATCCGTATTTGAA (site AGACGCACTTT)”, the “recombinant UMI read abundance (log10)” value was 1.43.

On to “AGACGCGCATGGACCGGTTTTCCCGGTAATCCGTATTTGTA (site AGACGCGCTTA)”, for which the “recombinant UMI read abundance (log10)” value stood at 2.72.

In the case of “AGACGGTCATGGACCGGTTTTCCCGGTAATCCGTATTTGGC (site AGACGGTCTGC)”, the “recombinant UMI read abundance (log10)” value was 3.28.

As to “AGACTAACATGGACCGGTTTTCCCGGTAATCCGTATTTGCT (site AGACTAACTAG)”, the “recombinant UMI read abundance (log10)” value came out at 2.61.

As to “AGACTAGCATGGACCGGTTTTCCCGGTAATCCGTATTTGTT (site AGACTAGCTAA)”, the “recombinant UMI read abundance (log10)” value amounted to 1.07.

Regarding “AGACTAGCATGGACCGGTTTTCCCGGTAATCCGTATTTGTT (site AGCCTAGCTAA)”, the “recombinant UMI read abundance (log10)” value is 0.00926.

Take “AGACTAGCATGGACCGGTTTTCCCGGTAATCCGTATTTGTT (site AGGCTAGCTAA)”: the “recombinant UMI read abundance (log10)” value was found to be 0.0149.

As for “AGACTAGCATGGACCGGTTTTCCCGGTAATCCGTATTTGTT (site AGTCTAGCTAA)”, the “recombinant UMI read abundance (log10)” value was 0.0145.

As to “AGAGACGCATGGACCGGTTTTCCCGGTAATCCGTATTTGAG (site AGAGACGCTCT)”, the “recombinant UMI read abundance (log10)” value turned out to be 2.67.

As for “AGAGAGACATGGACCGGTTTTCCCGGTAATCCGTATTTGCA (site AGAGAGACTTG)”, the “recombinant UMI read abundance (log10)” value was 2.98.

In the case of “AGAGAGACATGGACCGGTTTTCCCGGTAATCCGTATTTGCA (site AGGAAGACTTG)”, the “recombinant UMI read abundance (log10)” value is 1.56.

As for “AGAGAGGCATGGACCGGTTTTCCCGGTAATCCGTATTTGCT (site AGAAAGGCTAG)”, the “recombinant UMI read abundance (log10)” value stood at 2.43.

As for “AGAGAGGCATGGACCGGTTTTCCCGGTAATCCGTATTTGCT (site AGACAGGCTAG)”, the “recombinant UMI read abundance (log10)” value is 0.828.

On to “AGAGAGGCATGGACCGGTTTTCCCGGTAATCCGTATTTGCT (site AGAGAGGCTAG)”, for which the “recombinant UMI read abundance (log10)” value stood at 2.19.

“AGAGAGGCATGGACCGGTTTTCCCGGTAATCCGTATTTGCT (site AGATAGGCTAG)”: the “recombinant UMI read abundance (log10)” value came to 1.69.

As to “AGAGATGCATGGACCGGTTTTCCCGGTAATCCGTATTTGGG (site AGAGATGCTCC)”, the “recombinant UMI read abundance (log10)” value is 1.2.

As for “AGAGCATCATGGACCGGTTTTCCCGGTAATCCGTATTTGCT (site AGAGCATCTAG)”, the “recombinant UMI read abundance (log10)” value amounted to 2.16.

For “AGAGCATCATGGACCGGTTTTCCCGGTAATCCGTATTTGCT (site CGATCATCTAG)”, the “recombinant UMI read abundance (log10)” value was 0.

In the case of “AGAGCTTCATGGACCGGTTTTCCCGGTAATCCGTATTTGGA (site AGAGCTTCTTC)”, the “recombinant UMI read abundance (log10)” value was determined as 2.31.

As for “AGAGTATCATGGACCGGTTTTCCCGGTAATCCGTATTTGAA (site ACAGTATCTTG)”, the “recombinant UMI read abundance (log10)” value came to 2.21.

On to “AGAGTATCATGGACCGGTTTTCCCGGTAATCCGTATTTGAA (site AGAGTATCTTT)”, for which the “recombinant UMI read abundance (log10)” value was 3.15.

As for “AGAGTGGCATGGACCGGTTTTCCCGGTAATCCGTATTTGGT (site AGAGTGGCTAC)”, the “recombinant UMI read abundance (log10)” value turned out to be 1.47.

For “AGAGTGGCATGGACCGGTTTTCCCGGTAATCCGTATTTGGT (site CGAGTGGCTAC)”, the “recombinant UMI read abundance (log10)” value worked out at 0.973.

For the sequence “AGAGTGGCATGGACCGGTTTTCCCGGTAATCCGTATTTGGT (site GGAGTGGCTAC)”, the “recombinant UMI read abundance (log10)” value was 0.101.

As to “AGAGTGGCATGGACCGGTTTTCCCGGTAATCCGTATTTGGT (site TGAGTGGCTAC)”, the “recombinant UMI read abundance (log10)” value came out at 0.546.

“AGATATCCATGGACCGGTTTTCCCGGTAATCCGTATTTGAT (site AGATATCCTAT)”: the “recombinant UMI read abundance (log10)” value came out at 1.12.

For the sequence “AGATCAGCATGGACCGGTTTTCCCGGTAATCCGTATTTGCT (site AGATCAGCTAG)”, the “recombinant UMI read abundance (log10)” value was 2.68.

Consider “AGATCAGCATGGACCGGTTTTCCCGGTAATCCGTATTTGCT (site CGATCATCTAG)”, for which the “recombinant UMI read abundance (log10)” value was 0.

As to “AGATCAGCATGGACCGGTTTTCCCGGTAATCCGTATTTGGG (site AGATCAGCTCC)”, the “recombinant UMI read abundance (log10)” value worked out at 0.224.

Take “AGATCAGCATGGACCGGTTTTCCCGGTAATCCGTATTTGGG (site AGCTCAGCTCC)”: the “recombinant UMI read abundance (log10)” value amounted to 0.00476.

Turning to “AGATCAGCATGGACCGGTTTTCCCGGTAATCCGTATTTGGG (site AGGTCAGCTCC)”, the “recombinant UMI read abundance (log10)” value turned out to be 0.014.

For the sequence “AGATCAGCATGGACCGGTTTTCCCGGTAATCCGTATTTGGG (site AGTTCAGCTCC)”, the “recombinant UMI read abundance (log10)” value stood at 0.296.

For “AGATCCTCATGGACCGGTTTTCCCGGTAATCCGTATTTGTT (site AGATCCTCTAA)”, the “recombinant UMI read abundance (log10)” value was 2.08.

As for “AGATCGACATGGACCGGTTTTCCCGGTAATCCGTATTTGTT (site AGATCGACTAA)”, the “recombinant UMI read abundance (log10)” value came out at 0.688.

Consider “AGATCGACATGGACCGGTTTTCCCGGTAATCCGTATTTGTT (site CGATCGACTAA)”, for which the “recombinant UMI read abundance (log10)” value was 0.0123.

In the case of “AGATCGACATGGACCGGTTTTCCCGGTAATCCGTATTTGTT (site GGATCGACTAA)”, the “recombinant UMI read abundance (log10)” value was determined as 0.012.

In the case of “AGATCGACATGGACCGGTTTTCCCGGTAATCCGTATTTGTT (site TGATCGACTAA)”, the “recombinant UMI read abundance (log10)” value came out at 0.00951.

On to “AGATGCGCATGGACCGGTTTTCCCGGTAATCCGTATTTGAG (site AGATGCGCTCT)”, for which the “recombinant UMI read abundance (log10)” value turned out to be 1.86.

Take “AGATGGGCATGGACCGGTTTTCCCGGTAATCCGTATTTGGA (site AGATGGGCTTC)”: the “recombinant UMI read abundance (log10)” value stood at 1.22.

As for “AGATTATCATGGACCGGTTTTCCCGGTAATCCGTATTTGCT (site AGATTATCTAG)”, the “recombinant UMI read abundance (log10)” value came to 2.71.

Take “AGATTATCATGGACCGGTTTTCCCGGTAATCCGTATTTGCT (site CGATCATCTAG)”: the “recombinant UMI read abundance (log10)” value came to 0.

Turning to “AGCAAGACATGGACCGGTTTTCCCGGTAATCCGTATTTGCT (site AGCAAGACTAG)”, the “recombinant UMI read abundance (log10)” value amounted to 1.94.

For “AGCAAGACATGGACCGGTTTTCCCGGTAATCCGTATTTGCT (site AGGAAGACTTG)”, the “recombinant UMI read abundance (log10)” value was 0.

For “AGCAAGACATGGACCGGTTTTCCCGGTAATCCGTATTTGGA (site AGCAAGACTTC)”, the “recombinant UMI read abundance (log10)” value is 1.8.

As to “AGCAAGACATGGACCGGTTTTCCCGGTAATCCGTATTTGGA (site AGGAAGACTTG)”, the “recombinant UMI read abundance (log10)” value amounted to 0.

Turning to “AGCAAGGCATGGACCGGTTTTCCCGGTAATCCGTATTTGCT (site AGAAAGGCTAG)”, the “recombinant UMI read abundance (log10)” value was found to be 0.

On to “AGCAAGGCATGGACCGGTTTTCCCGGTAATCCGTATTTGCT (site AGCAAGGCTAG)”, for which the “recombinant UMI read abundance (log10)” value was found to be 2.61.

As to “AGCAAGGCATGGACCGGTTTTCCCGGTAATCCGTATTTGCT (site AGGAAGGCTAG)”, the “recombinant UMI read abundance (log10)” value was found to be 0.0349.

As for “AGCAAGGCATGGACCGGTTTTCCCGGTAATCCGTATTTGCT (site AGTAAGGCTAG)”, the “recombinant UMI read abundance (log10)” value stood at 0.238.

Turning to “AGCAATCCATGGACCGGTTTTCCCGGTAATCCGTATTTGAA (site AGCAATCCTTT)”, the “recombinant UMI read abundance (log10)” value was determined as 1.33.

Turning to “AGCAATCCATGGACCGGTTTTCCCGGTAATCCGTATTTGAA (site CGCAATCCTTT)”, the “recombinant UMI read abundance (log10)” value came out at 0.

Take “AGCAATCCATGGACCGGTTTTCCCGGTAATCCGTATTTGAA (site GGCAATCCTTT)”: the “recombinant UMI read abundance (log10)” value was determined as 0.00676.

“AGCAATCCATGGACCGGTTTTCCCGGTAATCCGTATTTGAA (site TGCAATCCTTT)”: the “recombinant UMI read abundance (log10)” value was 0.186.

Regarding “AGCACGTCATGGACCGGTTTTCCCGGTAATCCGTATTTGAC (site AGCACGTCTGT)”, the “recombinant UMI read abundance (log10)” value turned out to be 2.28.

These data come from the supplement of paper PMC11208160.
